SMILES strings stand for the structures.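 Five compound concentrations were applied to cells in 96-well plates for 48 hours; endpoints were derived by simple linear interpolation of the resulting dose-response curve. TGI is the concentration that stops growth completely.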 Where only a bound is given, the exact number is not on record here.

In PubChem BioAssay (NCI) one finds TGI data, which are given here for four compounds.

One assay has as its system HL-60(TB) leukemia. The experiment in a line: NCI anticancer screen, dose series, 48 h.
The compound `CN(C)c1ccc(C(Cc2ccccc2)C2NC(=S)NC2=O)cc1` (centres undefined) returned a TGI of more than 100 µM.
The compound `COc1ccc(C(=O)/C=C/c2ccc(O)c(O)c2)c(OC)c1` displayed a TGI of 2.53 µM.
Turning to `CN(C)CCCN1c2ccccc2Sc2ccc3ccccc3c21`, the TGI stood at 0.0372 µM.

For another assay, the system named is SK-OV-3 ovarian. Briefly: NCI anticancer screen, dose series, 48 h.
In turn, `C[C@]12CC[C@@H]3c4cc(OCC(F)(F)F)c(O)cc4CC[C@H]3[C@@H]1CC[C@@H]2O` gave a TGI of 16.8 µM.
The compound `CN(C)c1ccc(C(Cc2ccccc2)C2NC(=S)NC2=O)cc1` (centres undefined) came in with a TGI of more than 100 µM.
Compound `COc1ccc(C(=O)/C=C/c2ccc(O)c(O)c2)c(OC)c1` showed a TGI of more than 67.9 µM.
`CN(C)CCCN1c2ccccc2Sc2ccc3ccccc3c21` came in with a TGI of 27.5 µM.

The test system of a further assay is RXF 393 renal. The experiment in a line: NCI anticancer screen, dose series, 48 h.
`C[C@]12CC[C@@H]3c4cc(OCC(F)(F)F)c(O)cc4CC[C@H]3[C@@H]1CC[C@@H]2O`: the TGI is 8.68 µM.
The same measure, in the same setting: for `CN(C)c1ccc(C(Cc2ccccc2)C2NC(=S)NC2=O)cc1` (centres undefined) the value was more than 100 µM; for `COc1ccc(C(=O)/C=C/c2ccc(O)c(O)c2)c(OC)c1`, 39.2 µM.
As to `CN(C)CCCN1c2ccccc2Sc2ccc3ccccc3c21`, the TGI was found to be 3.92 µM.

The next assay relates to LOX IMVI melanoma. The experiment in a line: NCI anticancer screen, dose series, 48 h.
For `C[C@]12CC[C@@H]3c4cc(OCC(F)(F)F)c(O)cc4CC[C@H]3[C@@H]1CC[C@@H]2O`, the TGI turned out to be 17.1 µM.
With `CN(C)c1ccc(C(Cc2ccccc2)C2NC(=S)NC2=O)cc1` (centres undefined), the TGI was more than 100 µM.
Same read-out and setting: under `COc1ccc(C(=O)/C=C/c2ccc(O)c(O)c2)c(OC)c1` stands 26.4 µM; under `CN(C)CCCN1c2ccccc2Sc2ccc3ccccc3c21`, 19.8 µM.

For the next assay, the system named is MDA-MB-435. Briefly: NCI anticancer screen, dose series, 48 h.
Take `C[C@]12CC[C@@H]3c4cc(OCC(F)(F)F)c(O)cc4CC[C@H]3[C@@H]1CC[C@@H]2O`: the TGI stood at 1.1 µM.
`CN(C)c1ccc(C(Cc2ccccc2)C2NC(=S)NC2=O)cc1` (centres undefined) showed a TGI of more than 100 µM.
As for `COc1ccc(C(=O)/C=C/c2ccc(O)c(O)c2)c(OC)c1`, the TGI was more than 48.5 µM.
`CN(C)CCCN1c2ccccc2Sc2ccc3ccccc3c21` registered a TGI of 10.4 µM.

Another assay concerns CCRF-CEM leukemia. The experiment in a line: NCI anticancer screen, dose series, 48 h.
As for `C[C@]12CC[C@@H]3c4cc(OCC(F)(F)F)c(O)cc4CC[C@H]3[C@@H]1CC[C@@H]2O`, the TGI worked out at 15.2 µM.
For the compound `CN(C)c1ccc(C(Cc2ccccc2)C2NC(=S)NC2=O)cc1` (centres undefined), the TGI was more than 100 µM.
The compound `COc1ccc(C(=O)/C=C/c2ccc(O)c(O)c2)c(OC)c1` yielded a TGI of more than 32 µM.
In turn, `CN(C)CCCN1c2ccccc2Sc2ccc3ccccc3c21` gave a TGI of 8.2 µM.

The test system of the next assay is 786-0 renal. Briefly: NCI anticancer screen, dose series, 48 h.
The compound `C[C@]12CC[C@@H]3c4cc(OCC(F)(F)F)c(O)cc4CC[C@H]3[C@@H]1CC[C@@H]2O` yielded a TGI of 18.1 µM.
On the same count and under the same terms, under `CN(C)c1ccc(C(Cc2ccccc2)C2NC(=S)NC2=O)cc1` (centres undefined) stands more than 100 µM.
`COc1ccc(C(=O)/C=C/c2ccc(O)c(O)c2)c(OC)c1`: the TGI was found to be 44.3 µM.
`CN(C)CCCN1c2ccccc2Sc2ccc3ccccc3c21`: the TGI turned out to be 23.4 µM.

A further assay has as its system SK-MEL-28 melanoma. The experiment in a line: NCI anticancer screen, dose series, 48 h.
As for `C[C@]12CC[C@@H]3c4cc(OCC(F)(F)F)c(O)cc4CC[C@H]3[C@@H]1CC[C@@H]2O`, the TGI was 26.2 µM.
Compound `CN(C)c1ccc(C(Cc2ccccc2)C2NC(=S)NC2=O)cc1` (centres undefined) yielded a TGI of more than 100 µM.
As to `COc1ccc(C(=O)/C=C/c2ccc(O)c(O)c2)c(OC)c1`, the TGI was determined as 48.4 µM.
In turn, `CN(C)CCCN1c2ccccc2Sc2ccc3ccccc3c21` gave a TGI of 4.26 µM.

For the next assay, the system named is T-47D breast. The experiment in a line: NCI anticancer screen, dose series, 48 h.
The compound `C[C@]12CC[C@@H]3c4cc(OCC(F)(F)F)c(O)cc4CC[C@H]3[C@@H]1CC[C@@H]2O` registered a TGI of 49.5 µM.
Same read-out and setting: for `CN(C)c1ccc(C(Cc2ccccc2)C2NC(=S)NC2=O)cc1` (centres undefined) the value was more than 100 µM; for `COc1ccc(C(=O)/C=C/c2ccc(O)c(O)c2)c(OC)c1`, more than 100 µM.
`CN(C)CCCN1c2ccccc2Sc2ccc3ccccc3c21` displayed a TGI of 5.65 µM.

A further assay deals with MDA-MB-231 breast. The experiment in a line: NCI anticancer screen, dose series, 48 h.
On to `C[C@]12CC[C@@H]3c4cc(OCC(F)(F)F)c(O)cc4CC[C@H]3[C@@H]1CC[C@@H]2O`, for which the TGI came out at 3.11 µM.
As to `CN(C)c1ccc(C(Cc2ccccc2)C2NC(=S)NC2=O)cc1` (centres undefined), the TGI was more than 100 µM.
`COc1ccc(C(=O)/C=C/c2ccc(O)c(O)c2)c(OC)c1` returned a TGI of 27.3 µM.
The compound `CN(C)CCCN1c2ccccc2Sc2ccc3ccccc3c21` displayed a TGI of 13.7 µM.

The next assay has as its system SK-MEL-2 melanoma. The experiment in a line: NCI anticancer screen, dose series, 48 h.
For the compound `C[C@]12CC[C@@H]3c4cc(OCC(F)(F)F)c(O)cc4CC[C@H]3[C@@H]1CC[C@@H]2O`, the TGI came to 18.5 µM.
Regarding `CN(C)c1ccc(C(Cc2ccccc2)C2NC(=S)NC2=O)cc1` (centres undefined), the TGI is more than 100 µM.
In turn, `COc1ccc(C(=O)/C=C/c2ccc(O)c(O)c2)c(OC)c1` showed a TGI of 9.82 µM.
As for `CN(C)CCCN1c2ccccc2Sc2ccc3ccccc3c21`, the TGI worked out at 13.1 µM.

The test system of another assay is ACHN renal. The experiment in a line: NCI anticancer screen, dose series, 48 h.
As for `C[C@]12CC[C@@H]3c4cc(OCC(F)(F)F)c(O)cc4CC[C@H]3[C@@H]1CC[C@@H]2O`, the TGI came out at 47.1 µM.
`CN(C)c1ccc(C(Cc2ccccc2)C2NC(=S)NC2=O)cc1` (centres undefined) had a TGI of more than 100 µM.
Consider `COc1ccc(C(=O)/C=C/c2ccc(O)c(O)c2)c(OC)c1`, for which the TGI was more than 70.3 µM.
Compound `CN(C)CCCN1c2ccccc2Sc2ccc3ccccc3c21` registered a TGI of 20.9 µM.

Another assay relates to OVCAR-4 ovarian. Briefly: NCI anticancer screen, dose series, 48 h.
Regarding `C[C@]12CC[C@@H]3c4cc(OCC(F)(F)F)c(O)cc4CC[C@H]3[C@@H]1CC[C@@H]2O`, the TGI is more than 53.1 µM.
`CN(C)c1ccc(C(Cc2ccccc2)C2NC(=S)NC2=O)cc1` (centres undefined) returned a TGI of more than 100 µM.
Take `COc1ccc(C(=O)/C=C/c2ccc(O)c(O)c2)c(OC)c1`: the TGI is more than 100 µM.
The compound `CN(C)CCCN1c2ccccc2Sc2ccc3ccccc3c21` gave a TGI of 17.8 µM.

The test system of another assay is UO-31 renal. Briefly: NCI anticancer screen, dose series, 48 h.
In turn, `C[C@]12CC[C@@H]3c4cc(OCC(F)(F)F)c(O)cc4CC[C@H]3[C@@H]1CC[C@@H]2O` showed a TGI of 22.3 µM.
On the same count and under the same terms, for `CN(C)c1ccc(C(Cc2ccccc2)C2NC(=S)NC2=O)cc1` (centres undefined) the value was more than 100 µM; for `COc1ccc(C(=O)/C=C/c2ccc(O)c(O)c2)c(OC)c1`, 41.6 µM; for `CN(C)CCCN1c2ccccc2Sc2ccc3ccccc3c21`, 17 µM.

In another assay the test system is KM12 colon. The experiment in a line: NCI anticancer screen, dose series, 48 h.
With `C[C@]12CC[C@@H]3c4cc(OCC(F)(F)F)c(O)cc4CC[C@H]3[C@@H]1CC[C@@H]2O`, the TGI was 12.7 µM.
`CN(C)c1ccc(C(Cc2ccccc2)C2NC(=S)NC2=O)cc1` (centres undefined) registered a TGI of more than 100 µM.
On the same count and under the same terms, under `COc1ccc(C(=O)/C=C/c2ccc(O)c(O)c2)c(OC)c1` stands 15 µM; under `CN(C)CCCN1c2ccccc2Sc2ccc3ccccc3c21`, 19.3 µM.
